# Test results taken from a melting point compilation (Tetko et al.; mined from patent text by program, amines drawn as free bases though some values may be those of a salt).
row,Compound,melting point
1,Cc1ccc(C(=O)O)c(NC(=O)CCCCNC(=O)OC(C)(C)C)c1,212 °C
2,CN(C)CCCNC(CC(=O)O)C(=O)OC1CCCCC1 (stereo not drawn),150 to 152 °C
3,CC(C)(C)OC(=O)N1CCC(n2nnc(-c3cnc(-c4ccccc4)nc3)n2)CC1,178 to 180 °C
4,COc1cc(N)c2nccc(C)c2c1OCCCCCc1ccco1,41 to 42 °C
5,CCOC(=O)C(Nc1ccc(C(=O)OC)cc1)C(=O)OCC,66 to 69 °C
6,NS(=O)(=O)c1ccc(N2CN(c3ccccc3)CC2=O)cc1Cl,257 to 259 °C
7,N#CC12CCCC(C1)C1CCC2C1 (stereo not drawn),109 to 110 °C
8,O=C(Nc1cccc(Cl)c1C(=O)O)c1ccccc1,208 to 210 °C
9,NC(=O)c1cccc(CCCBr)c1,109 °C
10,O=C1CCCc2c(-c3ccccc3)[nH]c(-c3ccncc3)c21,254 to 255 °C
11,CCC(Oc1ccc(F)cc1)C(=O)OC1CC(O)C=C2C=CC(C)C(CCC3CC(O)CC(=O)O3)C21 (mixture of isomers),149 to 150 °C
12,CCCCCCCCCCCCCCCCCCNC(=O)OCC(CN)OC(=O)NC (stereo not drawn),49 to 50.5 °C
13,CCC1(COC(=O)C(C)(C)C)COC(=O)C(CC)(CC)N1 (stereo not drawn),37 to 41 °C
14,CCCCCCN(C)c1ccc(C=C2SC(=S)N(CC(=O)NC)C2=O)cc1,228 to 230 °C
15,Cc1c(-c2ccco2)c(N2CC[C@H](N(C)C)C2)c2oc(C3CC3)nc2c1C#N,158 to 159 °C
16,OCC1OC(n2cnc3c(NCc4ccccc4Cl)ncnc32)C(O)C1O (stereo not drawn),182 to 183 °C
17,O=C1c2ccccc2C(=O)N1CCCCN1CCC(=C(c2ccccc2)c2ccccc2)CC1,102 to 103 °C
18,COc1cc2[nH]c(=O)nc(C)c2c(C)c1OC,78 to 81 °C
19,Oc1ncncc1Oc1ccccc1,186 to 188 °C
20,CC(C)N(O)C(=O)C=Cc1ccc2ccccc2c1,184 to 185 °C
21,Cc1ccccc1/C=C/c1nc(COc2ccc(CCCCn3ccnc3CCO)cc2)co1,91 to 93 °C
22,COc1cc2c(Nc3ccc(Sc4nccn4C)c(Cl)c3)c(C#N)cnc2cc1NCCCN(C)C,198 to 200 °C
23,CN(C)C1CCN(C(=O)c2ccc(-c3[nH]nc4c3C(=O)c3c(NC(=O)NN5CCOCC5)cccc3-4)s2)CC1,185 to 186 °C

row,Compound,melting point
1,Cc1ccc(O)c(F)n1,133 to 135 °C
2,CC(C)CNc1c2c(nc3cn[nH]c13)CCCC2,124 to 127 °C
3,O=C(CCCN1CCC(NC(=O)c2ccccc2)CC1)c1ccc(F)cc1,161 to 162 °C
4,O=C(C1CCC(Nc2ncc3ncnc(Nc4ccc(F)c(Cl)c4)c3n2)CC1)N1CCNCC1 (stereo not drawn),178 to 182 °C
5,N#Cc1c(C(F)(F)F)nn(-c2c(Cl)cc(C(F)(F)F)cc2Cl)c1C(F)(F)F,88 to 92 °C
6,COc1ccc(C2(C#N)CCC(=O)CC2)cc1OC,111 to 112 °C
7,O=C(O)Cc1ccc2[nH]cc(CCNC(=O)OCc3ccccc3)c2c1,116 to 117 °C
8,O=C(Nc1cccc2c1C1CCCCN1C2=O)Nc1nc(Cl)c(Cl)c(Cl)c1Cl (stereo not drawn),246 °C
9,Cc1nc(O)c2c(n1)N(c1c(C)cc(Br)cc1C)C(=O)C2C (stereo not drawn),271 to 273 °C
10,OCCCOc1ccc(-n2ccnc2)cc1,76 to 78 °C
11,Fc1ccc(Cn2c(NC3CCN(CCNc4nccs4)CC3)nc3cncnc32)cc1,165 °C
12,CSc1cnc2cc(C)sc2c1O,222 to 225 °C
13,CCOC(=O)c1nc2c(Cl)nc(Cl)c(Cl)n2c1Cl,132 °C
14,CSCCOC(=O)N(C)c1cnc(-c2cncc(F)c2)s1,115 to 117 °C
15,NS(=O)(=O)c1cc2c(cc1Cl)C(=O)N(CCCN1CCOCC1)C2=O,190 to 191 °C
16,CCCCCCCCCCCC(OO)OOC(CCCCCCCCCCC)OO (stereo not drawn),56 to 58 °C
17,CC(C)OC(=O)OCC1(C)COC(=O)OC1,64 to 65 °C
18,O=C(CNc1ccc(F)cc1)Nc1ccccc1C(=O)O,217 to 219 °C
19,O=C(OCc1ccccc1)c1ccc(OCc2ccc(COc3ccc(C(=O)OCc4ccccc4)cc3)cc2)cc1,154 to 157 °C
20,Cc1cc(C(=O)O)ccc1NC(=O)C(CS)Cc1ccccc1 (stereo not drawn),217 to 218 °C
21,FC(F)(F)c1nnc2c3cc(Cl)ccc3ccn12,228 °C
22,COc1cc(C=CCN(C)CCc2ccc(N=C(N)c3cccs3)cc2)cc(OC)c1O,153 to 154 °C
23,COc1ccccc1C(=Cc1ccccc1[N+](=O)[O-])C(=O)O,217 to 219 °C

row,Compound,melting point
1,CSCC(=O)[C@H](Cc1ccccc1)NC(=O)[C@H](CC(C)C)NC(=O)OCc1ccccc1,81 to 91 °C
2,CCn1c2ccccc2c2cc(NC(=O)c3ccccc3C(F)(F)F)ccc21,206 to 207 °C
3,CCOC(=O)c1cn(-c2ccccc2)nc1NC=O,135 to 136 °C
4,CCNC(=O)NCCSCC(=O)NC/C=C\COc1cccc(CN2CCCCC2)c1,90.2 to 91.2 °C
5,COC(=O)C=C(Nc1ccccc1C#N)C(=O)OC,116 to 118 °C
6,NNc1cc2c(nn1)CCCCCC2,145 to 148 °C
7,COC(=O)c1cc(OC)c(Cl)cc1N,63 to 64 °C
8,O=[N+]([O-])c1ccc(OCc2ccc(F)cc2)cc1F,90 to 91 °C
9,CCCN(CCC)CCCCCOc1ccc2oc(-c3cccc(OC)c3)cc(=O)c2c1,80 to 81 °C
10,Cc1cc(C(=O)N2CCCC2)ccc1Br,55 to 57 °C
11,COc1ccc(N2CCN(c3c(C)c(C)c4c(c3C)C(O)(c3ccc(N(C)C)cc3)C(C)(C)O4)CC2)cc1 (stereo not drawn),144 to 146 °C
12,COc1ccc(C(=O)Cc2ccc3c(c2)OCO3)cc1OC,110 to 111 °C
13,COCCO[C@@H]1c2ccn3c(Cl)c(C)nc3c2N(C(C)=O)[C@H](c2ccccc2)[C@H]1OC(=O)C(C)(C)C,145 to 147 °C
14,CCCOc1ccc(C(CC(N)=O)N2C(=O)c3ccccc3C2=O)cc1 (stereo not drawn),110 °C
15,Nc1cc(NS(=O)(=O)CCl)c(Cl)cc1F,104 to 106 °C
16,CC(CC1C(C(=O)O)C1(C)C)=C(Cl)Cl (stereo not drawn),58.5 to 60 °C
17,Cc1cc(N)c([N+](=O)[O-])cc1NCC(O)CO (stereo not drawn),150 °C
18,COc1cc(OC)nc(Oc2cccc(Cl)c2C(=O)O)n1,123 to 126 °C
19,CN(C)C(=O)c1cccc(C(C(N)=O)c2cccc(Br)c2)c1 (stereo not drawn),119 to 120 °C
20,CC(C)N(c1nc(N)nc(-c2cc(Cl)ccc2Cl)n1)C(C)C,158 to 159 °C
21,CCOC(=O)c1c(N2CCCC2)c2cccnc2n(C)c1=O,118 to 120 °C

# The next lines start with the values.
row,melting point,Compound
1,82 to 83 °C,COc1ccc(C(C)N(C)CCCOc2ccc(S(=O)(=O)c3c(C(C)C)cn4ccccc34)cc2)cc1OC (stereo not drawn)
2,248 to 250 °C,CCS(=O)(=O)c1ccc(COc2cccc3c2CN(C2CCC(=O)NC2=O)C3=O)cc1 (stereo not drawn)
3,153 °C,CCOc1ccc2c(S(=O)(=O)c3ccc(OCc4ccccc4)cc3)c(C(C)C)cn2c1
4,128 to 130 °C,CS(=O)(=O)c1ccc(-c2cc(C(CCCO[N+](=O)[O-])=NO)nn2-c2ccccc2)cc1
5,97 to 100 °C,CN1OC(COCc2ccc(Cl)cc2)CC1(Cn1ccnc1)c1ccc(Cl)cc1 (stereo not drawn)
6,243 to 245 °C,COc1ccc(C2C3=C(COC3=O)Nc3ccc4cn[nH]c4c32)cc1O (stereo not drawn)
7,85 to 87 °C,Cc1ccc(S(=O)(=O)N[C@@H](C)C(=O)Oc2csc(-c3ccccc3)c2)cc1
8,231 to 234 °C,CCc1nn(Cc2cccnn2)c2c(=O)[nH]c(-c3cc(S(C)(=O)=O)ccc3OCC(C)C)nc12
9,108 to 115 °C,C[C@H](c1ccccc1)n1c(=O)c2c(N3CCN(C)CC3)cc(Cl)cc2n(Cc2ccccc2)c1=O
10,186 to 188 °C,O=S(=O)(Cl)c1ccc(Nc2nccc(-c3ccc(C(F)(F)F)cc3)n2)cc1
11,162 to 163 °C,CCN1CCC(N(C)S(=O)(=O)c2ccc(Nc3nccc(Nc4ccc(F)cc4)n3)cc2)CC1
12,142 to 143 °C,O=S(=O)(CCCCl)Nc1cccc(COc2cccc3cccnc23)c1
13,146 to 148 °C,CCN(CCOC)C(=O)C1=CC(c2ccccc2)C(=O)n2cc3cccc(Cl)c3c21 (stereo not drawn)
14,178 to 181 °C,C#CCN(Cc1cc2c(=O)[nH]c(COS(C)(=O)=O)nc2cc1Cl)c1ccc(C(=O)OC(C)(C)C)cc1
15,111 to 113 °C,COc1ccccc1CNc1nccc2ccccc12
16,125 to 127 °C,C=C1OC(=NOC(C)=O)C(c2ccccc2)C(=O)N1C(C)(C)C(=O)Nc1cc(Cl)cc(Cl)c1 (stereo not drawn)

row,melting point,Compound
1,154 °C,COCc1c(CNS(=O)(=O)c2cccc(Cl)c2)nn(-c2ccc(Cl)cc2Cl)c1-c1ccc(Cl)cc1
2,292 to 293 °C,COc1ccc(Cc2nnc3c4ccccc4c(Nc4cccc(-c5nn[nH]n5)c4)nn23)cc1
3,124 to 125 °C,COc1ccc(-c2c[nH]c3c(OC)ccc(OC)c3c2=O)cc1
4,132 to 134 °C,N#Cc1ccc(-c2ccc(OC(F)(F)F)c(CNC3CCN(C(=O)CO)CC3c3ccccc3)c2)c(F)c1 (stereo not drawn)
5,234 °C,O=C(NC1CCOCC1)c1ccc(-c2cc(-c3c(-c4cccc(Cl)c4)nc4ccccn34)ccn2)cc1
6,166 to 167 °C,Clc1ccc(-c2nc(Cl)c3ccccc3n2)cc1
7,178 to 183 °C,Clc1ccc(-c2nc3cc(Cl)ccc3o2)cc1
8,110 to 113 °C,COc1ccc(C)cc1NC(=O)Nc1ccc2c(c1)CCN(C(=O)Nc1ccc(OCCO)cc1Cl)C2
9,132 to 133 °C,CCOC(=O)Cc1c(-c2ccccc2)c2cc(C)c(Cl)cc2oc1=O
10,161 to 165 °C,CC(=O)ON=C(N)c1ccc(C(=O)N2CCN(C(=O)[C@@H]3CCCN3S(=O)(=O)c3ccc(Cl)c(COc4cccc5ncc(C)nc45)c3Cl)CC2)cc1
11,206 to 207 °C,O=C(O)C1=Cc2cc(Cl)cc(-c3ccc(Cl)cc3)c2OC1C(F)(F)F (stereo not drawn)
12,106 to 107 °C,CCc1c(-c2ccc(OCc3ccccc3)cc2)c2c(COCCCCCN3CCCCC3)cc3c(OCc4ccccc4)ccc1n32
13,152 to 154 °C,Cc1ccc(N=c2scc(-c3ccc(Cl)c(S(=O)(=O)N(C)C)c3)n2C)c(C)c1
14,218 to 219 °C,CCOC(=O)c1c(Cn2cnnc2)nc2cc(OC)c(OC)cc2c1-c1ccc(OC)cc1
15,248 to 250 °C,C#CCn1c(=O)c2cc(Cl)ccc2c2ccc(Cl)cc21
